From patent publication US10654814B2, “Bicyclic hydroxamic acids useful as inhibitors of mammalian histone deacetylase activity” (KANCERA AB, priority 2015, dated 2020) come the findings set out here.

The term IC50 denotes the concentration that gives 50% inhibition.

Each structure is given as a SMILES string. Structures can show the parent of a compound that is named as a salt.

Chain of HDAC6 (Q9UBN7 whole entry): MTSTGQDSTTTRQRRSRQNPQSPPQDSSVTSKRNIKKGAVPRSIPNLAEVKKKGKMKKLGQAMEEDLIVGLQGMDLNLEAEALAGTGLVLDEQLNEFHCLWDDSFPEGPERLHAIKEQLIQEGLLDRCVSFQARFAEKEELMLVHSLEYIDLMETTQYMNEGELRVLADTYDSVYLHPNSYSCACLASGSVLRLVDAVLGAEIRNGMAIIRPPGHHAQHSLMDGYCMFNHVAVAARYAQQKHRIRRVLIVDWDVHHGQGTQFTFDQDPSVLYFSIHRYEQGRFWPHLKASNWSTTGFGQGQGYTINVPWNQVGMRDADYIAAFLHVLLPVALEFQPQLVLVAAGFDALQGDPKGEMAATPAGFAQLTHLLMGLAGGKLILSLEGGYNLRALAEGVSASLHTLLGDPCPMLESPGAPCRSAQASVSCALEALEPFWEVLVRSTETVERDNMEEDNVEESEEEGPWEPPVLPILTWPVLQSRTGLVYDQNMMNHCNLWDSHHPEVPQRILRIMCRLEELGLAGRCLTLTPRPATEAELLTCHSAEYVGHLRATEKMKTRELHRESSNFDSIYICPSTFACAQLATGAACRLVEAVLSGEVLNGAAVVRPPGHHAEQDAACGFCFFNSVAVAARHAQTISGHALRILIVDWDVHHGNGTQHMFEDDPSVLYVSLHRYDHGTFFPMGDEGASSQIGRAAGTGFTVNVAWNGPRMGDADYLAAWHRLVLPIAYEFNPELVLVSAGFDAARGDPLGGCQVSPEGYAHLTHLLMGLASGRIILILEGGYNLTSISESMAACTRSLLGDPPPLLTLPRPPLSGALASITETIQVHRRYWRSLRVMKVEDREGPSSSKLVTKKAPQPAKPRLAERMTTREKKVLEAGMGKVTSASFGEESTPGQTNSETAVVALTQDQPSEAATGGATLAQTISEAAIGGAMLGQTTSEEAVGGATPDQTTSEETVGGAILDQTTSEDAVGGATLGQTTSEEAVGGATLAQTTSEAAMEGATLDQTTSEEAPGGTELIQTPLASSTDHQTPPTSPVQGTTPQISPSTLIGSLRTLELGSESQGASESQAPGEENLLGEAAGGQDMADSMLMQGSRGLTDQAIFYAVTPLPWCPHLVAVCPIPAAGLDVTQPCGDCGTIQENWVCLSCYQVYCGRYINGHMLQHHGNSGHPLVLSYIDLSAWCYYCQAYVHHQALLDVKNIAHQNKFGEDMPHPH

The assay has as its target HDAC6 (Homo sapiens (Human), UniProt Q9UBN7). Briefly: HDAC6 in vitro enzymatic assay (fluorescence). The format is biochemical. Conditions: Table 3; read-out: IC50 (nM) for inhibition of HDAC6. As to the method:
Biological Tests Method for Measurement of Enzymatic Activity of HDACs Materials & Methods
All Examples were tested in HDAC1,2,3,6 and 8 in vitro enzymatic assays. The assay principle is well known (Hauser et al. 2009, Bradner et al. 2010) and all necessary reagents like enzymes, substrates, developer and reference compounds are commercially available (see e.g. BPS Biosciences http://www.bpsbioscience.com/). Stock solutions (10 mM in DMSO) of compounds were serially diluted 1:3 in 11 concentrations with a top concentration of 200 μM for HDAC1,2,3 and 2 μM for HDAC6 and HDAC8. The enzymatic reactions were conducted in a mixture containing assay buffer, bovine serum albumin, HDAC substrate, and a test compound. After enzymatic reaction, developer was added and after an additional incubation time, fluorescence intensity was measured at an excitation wavelength of 360 nm and an emission wavelength of 460 nm. All experiments were performed in duplicate.
As for `CS(=O)(=O)Nc1ccc(-c2cc3cc(C(=O)NO)ccc3s2)cc1` [Example 109, N-hydroxy-2-{4-[(methylsulfonyl)amino]phenyl}-1-benzothiophene-5-carboxamide], the IC50 is 86 nM.

As for `CC(C)c1ccc(-c2cc3ncc(C(=O)NO)cc3s2)cc1` [Example 110, N-Hydroxy-2-[4-(1-methylethyl)phenyl]thieno[3,2-b]pyridine-6-carboxamide], the IC50 was 50 nM. The result for `CC(C)c1ccc(-c2cc3ncc(C(=O)NO)cc3o2)cc1` [Example 115, N-Hydroxy-2-[4-(1-methylethyl)phenyl]furo[3,2-b]pyridine-6-carboxamide] reads 23 nM; that for `O=C(NO)c1ccc2cc(CO)oc2c1` [Example 119, N-hydroxy-2-(hydroxymethyl)-1-benzofuran-6-carboxamide], 74 nM. Under `O=C(NO)c1ccc2nc(NCc3ccc(-c4ccccc4)cc3)[nH]c2c1` [Example 125, 2-(([1,1′-biphenyl]-4-ylmethyl)amino)-N-hydroxy-1H-benzo[d]imidazole-6-carboxamide] stands 7 nM. Under `O=C(NO)c1ccc2nc(N3CCN(c4ccc(F)cc4)CC3)[nH]c2c1` [Example 126, 2-(4-(4-fluorophenyl)piperazin-1-yl)-N-hydroxy-1H-benzo[d]imidazole-6-carboxamide] stands 85 nM. On to `O=C(NO)c1ccc2nc(NCc3ccccc3)[nH]c2c1` [Example 127, 2-(benzylamino)-N-hydroxy-1H-benzo[d]imidazole-6-carboxamide], for which the IC50 turned out to be 60 nM. Under `O=C(NO)c1ccc2nc(Nc3cccc(-c4ccccc4)c3)[nH]c2c1` [Example 136, 2-([1,1′-biphenyl]-3-ylamino)-N-hydroxy-1H-benzo[d]imidazole-6-carboxamide] stands 72 nM; under `Cn1c(Nc2ccccc2)nc2cc(C(=O)NO)ccc21` [Example 137, N-Hydroxy-1-methyl-2-(phenylamino)-1H-benzimidazole-5-carboxamide], 39 nM; under `CC(C)c1ccc(Nc2nc3cc(C(=O)NO)ccc3n2C)cc1` [Example 138, N-hydroxy-2-((4-isopropylphenyl)amino)-1-methyl-1H-benzo[d]imidazole-5-carboxamide], 22 nM. For `CN(Cc1ccccc1)c1nc2cc(C(=O)NO)ccc2n1C` [Example 139, 2-(benzyl(methyl)amino)-N-hydroxy-1-methyl-1H-benzo[d]imidazole-5-carboxamide], the IC50 was 30 nM. Under `Cn1c(NCCc2ccccc2)nc2cc(C(=O)NO)ccc21` [Example 140, N-hydroxy-1-methyl-2-(phenethylamino)-1H-benzo[d]imidazole-5-carboxamide] stands 10 nM; under `Cn1c(N(Cc2ccccc2)c2ccccc2)nc2cc(C(=O)NO)ccc21` [Example 141, 2-(benzyl(phenyl)amino)-N-hydroxy-1-methyl-1H-benzo[d]imidazole-5-carboxamide], 22 nM.

On to `Cn1c(Nc2cccc(OCc3ccccc3)c2)nc2cc(C(=O)NO)ccc21` [Example 142, 2-((3-(benzyloxy)phenyl)amino)-N-hydroxy-1-methyl-1H-benzo[d]imidazole-5-carboxamide], for which the IC50 is 1 nM. The result for `Cn1c(N2CCC(Cc3ccccc3)CC2)nc2cc(C(=O)NO)ccc21` [Example 143, 2-(4-benzylpiperidin-1-yl)-N-hydroxy-1-methyl-1H-benzo[d]imidazole-5-carboxamide] reads 7 nM; that for `Cn1c(Nc2cccc(-c3ccccc3)c2)nc2cc(C(=O)NO)ccc21` [Example 144, 2-([1,1′-biphenyl]-3-ylamino)-N-hydroxy-1-methyl-1H-benzo[d]imidazole-5-carboxamide], 7 nM. For `Cn1c(N2CCc3ccccc3C2)nc2cc(C(=O)NO)ccc21` [Example 145, 2-(3,4-dihydroisoquinolin-2(1H)-yl)-N-hydroxy-1-methyl-1H-benzo[d]imidazole-5-carboxamide], the IC50 was 42 nM.

With `O=C(NO)c1ccc2cc(-c3ccoc3)sc2c1` [Example 149, 2-furan-3-yl-N-hydroxy-1-benzothiophene-6-carboxamide], the IC50 was determined as 49 nM. Under `COc1cc(-c2cc3ccc(C(=O)NO)cc3s2)ccc1O` [Example 150, N-hydroxy-2-(4-hydroxy-3-methoxyphenyl)-1-benzothiophene-6-carboxamide] stands 53 nM. For `CC1CCN(c2ccc(-c3nc4cc(C(=O)NO)ccc4o3)cn2)CC1` [Example 152, N-Hydroxy-2-[6-(4-methylpiperidin-1-yl)pyridin-3-yl]-1,3-benzoxazole-5-carboxamide trifluoroacetate], the IC50 was 30 nM.

For the compound `O=C(NO)c1ccc2oc(-c3ccc(NC4CCCCCC4)nc3)nc2c1` [Example 158, 2-[6-(cycloheptylamino)pyridin-3-yl]-N-hydroxy-1,3-benzoxazole-5-carboxamide trifluoroacetate], the IC50 worked out at 34 nM.

For the compound `COc1ccccc1N1CCN(c2ccc(-c3nc4cc(C(=O)NO)ccc4o3)cn2)CC1` [Example 160, N-hydroxy-2-{6-[4-(2-methoxyphenyl)piperazin-1-yl]pyridin-3-yl}-1,3-benzoxazole-5-carboxamide trifluoroacetate], the IC50 came to 21 nM.

With `O=C(NO)c1ccc2oc(-c3ccc(-c4ccccc4)nc3)nc2c1` [Example 161, N-Hydroxy-2-(6-phenylpyridin-3-yl)-1,3-benzoxazole-5-carboxamide trifluoroacetate], the IC50 was 22 nM.

On to `CC(C)(C)c1ccc(OCc2cc3cc(C(=O)NO)ccc3o2)cc1` [Example 163, 2-[(4-tert-Butylphenoxy)methyl]-N-hydroxy-1-benzofuran-5-carboxamide], for which the IC50 stood at 58 nM. Under `O=C(NO)c1ccc2oc(-c3ccc(-c4ccccc4)cc3F)nc2c1` [Example 173, 2-(3-Fluorobiphenyl-4-yl)-N-hydroxy-1,3-benzoxazole-5-carboxamide] stands 20 nM; under `O=C(NO)c1ccc2oc(-c3ccc(-c4cccnc4)cc3F)nc2c1` [Example 175, 2-(2-fluoro-4-pyridin-3-ylphenyl)-N-hydroxy-1,3-benzoxazole-5-carboxamide], 34 nM; under `CS(=O)(=O)c1ccc(-c2ccc(-c3nc4cc(C(=O)NO)ccc4o3)cc2)cc1` [Example 180, N-hydroxy-2-[4′-(methylsulfonyl)biphenyl-4-yl]-1,3-benzoxazole-5-carboxamide], 8 nM.

In the case of `Cc1noc(C)c1-c1ccc(-c2nc3cc(C(=O)NO)ccc3o2)cc1` [Example 181, 2-[4-(3,5-dimethylisoxazol-4-yl)phenyl]-N-hydroxy-1,3-benzoxazole-5-carboxamide], the IC50 amounted to 31 nM. The result for `COc1cc(-c2ccccc2F)ccc1-c1nc2cc(C(=O)NO)ccc2o1` [Example 196, 2-(2′-fluoro-3-methoxybiphenyl-4-yl)-N-hydroxy-1,3-benzoxazole-5-carboxamide] reads 20 nM. The result for `C[C@@H]1CN(Cc2cccc(-c3nc4cc(C(=O)NO)ccc4o3)c2)C[C@H](C)O1` [Example 202, 2-(3-{[(cis)-2,6-dimethylmorpholin-4-yl]methyl}phenyl)-N-hydroxy-1,3-benzoxazole-5-carboxamide trifluoroacetate] reads 53 nM; that for `COCCN(C)Cc1cccc(-c2nc3cc(C(=O)NO)ccc3o2)c1` [Example 205, N-hydroxy-2-(3-{[(2-methoxy-ethyl)(methyl)amino]methyl}phenyl)-1,3-benzoxazole-5-carboxamide trifluoroacetate], 64 nM; that for `C[C@@H]1CN(Cc2ccc(-c3nc4cc(C(=O)NO)ccc4o3)cc2)C[C@H](C)O1` [Example 207, 2-(4-{[(cis)-2,6-dimethylmorpholin-4-yl]methyl}phenyl)-N-hydroxy-1,3-benzoxazole-5-carboxamide trifluoroacetate], 73 nM.

With `O=C(NO)c1ccc2oc(-c3ccc(CN4CCN(c5ccncc5)CC4)cc3)nc2c1` [Example 209, N-hydroxy-2-{4-[(4-pyridin-4-ylpiperazin-1-yl)methyl]phenyl}-1,3-benzoxazole-5-carboxamide trifluoroacetate], the IC50 worked out at 35 nM. On to `CC(C)c1ccc(-c2nc3cc(C(=O)NO)ccc3o2)cc1F` [Example 211, 2-[3-Fluoro-4-(1-methylethyl)phenyl]-N-hydroxy-1,3-benzoxazole-5-carboxamide], for which the IC50 is 38 nM. Under `O=C(NO)c1ccc2oc(-c3ccc4c(c3)OCCO4)nc2c1` [Example 219, 2-(2,3-Dihydro-1,4-benzodioxin-6-yl)-N-hydroxy-1,3-benzoxazole-5-carboxamide] stands 44 nM; under `O=C(NO)c1ccc2oc(-c3cccc(O)c3)nc2c1` [Example 220, N-hydroxy-2-(3-hydroxyphenyl)-1,3-benzoxazole-5-carboxamide], 32 nM.

Regarding `Cc1[nH]c2ccccc2c1-c1nc2cc(C(=O)NO)ccc2o1` [Example 228, N-hydroxy-2-(2-methyl-1H-indol-3-yl)-1,3-benzoxazole-5-carboxamide], the IC50 stood at 27 nM.

In the case of `O=C(NO)c1ccc2oc(Nc3cccc(-c4ccccc4)c3)nc2c1` [Example 230, 2-(biphenyl-3-ylamino)-N-hydroxy-1,3-benzoxazole-5-carboxamide], the half-inhibitory concentration (IC50) came to 7 nM. As for `O=C(NO)c1ccc2oc(NC3CCCCCCC3)nc2c1` [Example 232, 2-(cyclooctylamino)-N-hydroxy-1,3-benzoxazole-5-carboxamide], the IC50 is 51 nM.
